Measurements taken from ChEMBL document CHEMBL3588773, “Volume of Distribution in Drug Design” (J Med Chem, 2015).

Columns and labels:
[1] = Volume of distribution at steady state in Sprague-Dawley rat at 2.5 mg/kg; assay type: ADME, organism-based; settings: in vivo, read-out: Vdss
Heat shock protein HSP90 = Heat shock protein HSP90 (Homo sapiens, UniProt P07900+P08238); test: Inhibition of human recombinant HSP90 by scintillation proximity competition binding assay; assay type: protein assay
[2] = Lipophilicity, log P of the compound; settings: octanol/water
[3] = Distribution coefficient, log D of the compound; assay type: physicochemical; settings: octanol/water
Homo sapiens [4] = species: Homo sapiens; test: Unbound volume of distribution at steady state in human; assay type: ADME, organism-based; settings: in vivo
Homo sapiens [5] = species: Homo sapiens; test: Unbound intrinsic clearance in human; assay type: ADME, organism-based; settings: in vivo
Plasma = test: (§1) Unbound fraction in human plasma; assay type: ADME, cell-free
[6] = Volume of distribution at steady state in human; settings: in vivo
[7] = Dissociation constant of the compound; assay type: physicochemical
[8] = as §1; assay type: ADME, cell-free
[9] = Volume of distribution at steady state in mouse; assay type: ADME, organism-based; settings: in vivo, read-out: Vdss
[10] = Volume of distribution at steady state in wild type mouse; assay type: ADME, organism-based; settings: in vivo, read-out: Vdss

CC(C)(CC(F)(F)F)NC(=O)N1Cc2nc(N)nc(-c3c(Cl)cc(Cl)cc3OCCn3cccn3)c2C1
Vd [1]: 2 L/kg
Ki (Heat shock protein HSP90): 9.7 nM

CC(C)(CC(F)(F)F)NC(=O)N1Cc2nc(N)nc(-c3c(Cl)cc(Cl)cc3OCCn3cc(F)cn3)c2C1
Vd [1]: 13 L/kg
Ki (Heat shock protein HSP90): 2.1 nM

CC(F)(F)CC(C)(C)NC(=O)N1Cc2nc(N)nc(-c3c(Cl)cc(Cl)cc3OCCn3cccn3)c2C1
Vd [1]: 1.8 L/kg
Ki (Heat shock protein HSP90): 6.6 nM

CC(F)(F)CC(C)(C)NC(=O)N1Cc2nc(N)nc(-c3c(Cl)cc(Cl)cc3OCCn3cc(F)cn3)c2C1
Vd [1]: 10 L/kg
Ki (Heat shock protein HSP90): 1.7 nM

CC(C)(NC(=O)N1Cc2nc(N)nc(-c3c(Cl)cc(Cl)cc3OCCn3cccn3)c2C1)C12CC(C1)C2
Vd [1]: 1.8 L/kg
Ki (Heat shock protein HSP90): 7.3 nM

CC(C)(NC(=O)N1Cc2nc(N)nc(-c3c(Cl)cc(Cl)cc3OCCn3cc(F)cn3)c2C1)C12CC(C1)C2
Vd [1]: 11 L/kg
Ki (Heat shock protein HSP90): 3.3 nM

CCOC(=O)C1=C(COCCN)NC(C)=C(C(=O)OC)C1c1ccccc1Cl (stereo not given) [AMLODIPINE]
logP [2]: 3.3
logD ([3]; read-out: logD): 1.2

CC(C)NCC(O)COc1ccc(CCOCC2CC2)cc1 (stereo not given) [BETAXOLOL]
logD [3]: 1.1
Vduss (Homo sapiens [4]): 13 L/kg
CL free (Homo sapiens [5]): 13 mL/min/kg

CN(C)CCC(c1ccc(Cl)cc1)c1ccccn1 (stereo not given) [CHLORPHENIRAMINE]
logP [2]: 3.4
logD ([3]; read-out: logD): 1.5
Fu (Plasma): 0.056
Vd [6]: 10 L/kg
Vduss (Homo sapiens [4]): 178 L/kg

OC(Cn1cncn1)(Cn1cncn1)c1ccc(F)cc1F [FLUCONAZOLE]
Vduss (Homo sapiens [4]): 0.84 L/kg

CNCCC(Oc1ccc(C(F)(F)F)cc1)c1ccccc1 (stereo not given) [FLUOXETINE]
pKa [7]: 10.5
fraction unbound [8]: 0.06
Vd [6]: 4.3 L/kg
Vduss (Homo sapiens [4]): 71 L/kg

O=C(CCCN1CCC(O)(c2ccc(Cl)cc2)CC1)c1ccc(F)cc1 [HALOPERIDOL]
Vd [9]: 0.6 L/kg

COc1ccc2c(c1)c(CC(=O)O)c(C)n2C(=O)c1ccc(Cl)cc1 [INDOMETHACIN]
logD ([3]; read-out: logD): 0.7
Fu (Plasma): 0.01
Vduss (Homo sapiens [4]): 9.6 L/kg

CC(C(=O)O)c1cccc(C(=O)c2ccccc2)c1 (stereo not given) [KETOPROFEN]
logP [2]: 2.9
logD ([3]; read-out: logD): 0.2

COCCc1ccc(OCC(O)CNC(C)C)cc1 (stereo not given) [METOPROLOL]
logD ([3]; read-out: logD): -0.1
Vduss (Homo sapiens [4]): 4 L/kg
CL free (Homo sapiens [5]): 33 mL/min/kg

COCCOC(=O)C1=C(C)NC(C)=C(C(=O)OC(C)C)C1c1cccc([N+](=O)[O-])c1 (stereo not given) [NIMODIPINE]
logP [2]: 4.2

CC[C@H](C)C(=O)O[C@H]1C[C@H](O)C=C2C=C[C@H](C)[C@H](CC[C@@H](O)C[C@@H](O)CC(=O)O)[C@H]21 [PRAVASTATIN]
Vd [10]: 0.27 L/kg

CCC(C)(C)C(=O)O[C@H]1C[C@@H](C)C=C2C=C[C@H](C)[C@H](CC[C@@H]3C[C@@H](O)CC(=O)O3)[C@H]21 [SIMVASTATIN]
Vd [10]: 14 L/kg

O=c1n(CCCN2CCN(c3cccc(Cl)c3)CC2)nc2ccccn12 [TRAZODONE]
Vd [9]: 18 L/kg
